Reference: US20240116939A1, “CHIRAL OR RACEMIC PYRIMIDINE-FUSED DIAZEPINONE DERIVATIVES, PREPARATION METHOD, AND APPLICATION THEREOF” (SUN YAT-SEN UNIVERSITY, priority 2021, published 2024)

Tests used:
PC12 cells [1] = test: Hoechst and PI staining of PC12 cell apoptosis; assay type: cell-based; conditions: drug 1.0 uM, 48 hours
Experimental: PC12 cell apoptosis is detected by Hoechst and PI staining. Hoechst can bind to cell nucleus of living cells, while PI (propidium iodide) can bind to the nucleuses of dead cells. The PC12 cells are plated in 12-well plates, and after being treated with drugs for 48 hours, the PC12 cells are stained with the nuclear dye Hoechst. The PC12 cells are washed twice with PBS and continued to be incubated with 10 mg/L Hoechst in the incubator for 20 min, For PI staining, the PC12 cells are incubated with a working solution including PI (final concentration 1 μg/mL) at room temperature for 10 min […] The PC12 cells are observed and photographed by a fluorescence microscope (Zeiss, Germany), and the results are shown in FIGS. 2 and 3. Blue fluorescence (white background) represents living cells, and red fluorescence (black background) represents dead cells.

cofilin-1 = test: Western blotting of cofilin-1 in CORT-treated PC12 cells; assay type: cell-based; conditions: Western blot; 0.625 uM; A and B of FIG. 3
Experimental: (§1) PC12 cells are lysed in RIPA lysis solution including 1% phenylmethylsulfonyl fluoride (PMSF) on ice for 30 minutes, the supernatant solution is collected and centrifuged, and the protein concentration of the supernatant solution is measured by a BCA assay kit (Beyotime, Shanghai). Protein samples are loaded onto 10% SDS-polyacrylamide gel electrophoresis and then further transferred to PVDF membrane (Millipore, MA, USA). The PVDF membrane is blocked with 5% non-fat milk and then incubated with a single primary antibody at 4° C. overnight. After washing with Tris-buffered saline containing Tween-20 (0.1%) (TBST), the PVDF membrane is incubated with secondary antibodies at room temperature. The PVDF membrane is analyzed by ECL reagents (Beyotime, Shanghai) and a BIO-RAD ChemiDoc XRS system. Protein band intensity is performed by Image J software (The National Institutes of Health, Bethesda, MD, USA).

GR = test: Western blotting of GR in CORT-treated PC12 cells; assay type: cell-based; conditions: Western blot; 0.625 uM; A and B of FIG. 3
Experimental: as §1

NF-κB = test: Western blotting of NF-κB in CORT-treated PC12 cells; assay type: cell-based; conditions: Western blot; 0.625 uM; A and B of FIG. 3
Experimental: as §1

PC12 cells [2] = test: MTT cell viability of corticosterone (CORT)-induced PC12 cells (in vitro depression model); conditions: for viability at 0.625 µM: PC-12, read-out: Cell viability (%), PC12 cells pretreated with 600 μM corticosterone 24 h; for viability at 0.625 µM / Culture time needed to exert effect on cell survival / Cell viability (%): drug 0.625 uM; for viability at 0.625 µM / Cell viability (%): 24 h culture, average of three independent experiments; for viability at 0.625 µM / Effect on death rate of cells caused by CORT (cell survival rate) / Cell viability (%): MTT; for Effect on death rate of cells caused by CORT (cell survival rate): 0.625-20 uM at 12 h, 0.625 uM at 12, 24, 48 h, A and B of FIG. 2; for Culture time needed to exert effect on cell survival: B of FIG. 2; for Cell viability (%): PC12 cells pretreated with 600 μM corticosterone 24 h
Experimental: PC12 cells are purchased from Procell Life Science & Technology Co., Ltd. (Wuhan, China). All cell culture reagents are purchased from Life Technologies (Grand Island, Nebraska, USA). Cells are cultured in Dulbecco's modified Eagle's medium (Gibco, USA) including 10% fetal calf serum (Gibco, USA) at 37° C. in an incubator including 5% CO2.
Corticosterone (CORT)-induced PC12 cells are usually used to establish the depression model in vitro.
Cell viability is measured by using MTT [3-(4,5-dimethyl-2-thiazolyl)-2,5-diphenyl-2H-tetrazolium bromide].

Row | Compound | PC12 cell death / apoptosis caused by corticosterone (blue and red fluorescence number) (PC12 cells [1]) | viability at 0.625 µM (PC12 cells [2]; Rattus norvegicus) | melting point | further results
1 | C=C[C@H]1CN(Cc2ccccc2)C(=O)c2cnc(-c3cnccc3OC)nc2N1c1ccccc1 [(S)-I-17, (S)-6-benzyl-2-(4-methoxy-3-pyridyl)-9-phenyl-8-vinyl-6,7,8,9-tetrahydro-5H-pyrimido[4,5-e][1,4]diazepin-5-one] | can reverse the massive apoptosis of the PC12 cells caused by corticosterone | 96.9 ± 2.7% |  | Overexpression of cofilin-1 (cofilin-1): inhibit the overexpression; Expression of GR (GR): promote the expression of GR; Overexpression of NF-κB (NF-κB): inhibit the overexpression
2 | C=C[C@H]1CN(Cc2ccccc2)C(=O)c2cnc(N3CCN(C)CC3)nc2N1c1ccccc1 [(S)-I-11, (S)-6-benzyl-2-(4-methyl-1-piperazinyl)-9-phenyl-8-vinyl-6,7,8,9-tetrahydro-5H-pyrimido[4,5-e]diazepine-5-one] | can reduce cell death |  |  | Effect on death rate of cells caused by CORT (cell survival rate) (PC12 cells [2]): can effectively reduce the death rate of cells caused by CORT; Culture time needed to exert effect on cell survival (PC12 cells [2]): 12 h
3 | C=C[C@H]1CN(Cc2ccccc2)C(=O)c2cnc(N3CCCC3)nc2N1c1ccccc1 [(S)-I-12, (S)6-benzyl-9-phenyl-2-(1-tetrahydropyrrolyl)-8-vinyl-6,7,8,9-tetrahydro-5H-pyrimido[4,5-e][1,4]diazepin-5-one] |  | 98.6 ± 3.1% | 153.8 to 154.3 °C | 
4 | C=C[C@H]1CN(Cc2ccccc2)C(=O)c2cnc(-c3cccc4ccccc34)nc2N1c1ccccc1 [(S)-I-14, (S)-6-benzyl-2-(1-naphthyl)-9-phenyl-8-vinyl-6,7,8,9-tetrahydro-5H-pyrimido[4,5-e][1,4]diazepin-5-one] |  | 88.1 ± 4.7% | 227.2 to 227.4 °C | Survival rate of PC12 cells, comparison of chiral configurations (PC12 cells [2]; 0.625 uM, B, C and D of FIG. 4): can increase the survival rate better than their corresponding racemates
5 | C=C[C@@H]1CN(Cc2ccccc2)C(=O)c2cnc(OC)nc2N1c1ccccc1 [(R)-I-9, (R)-6-benzyl-2methoxy-9-phenyl-8-vinyl-6,7,8,9-tetrahydro-5H-pyrimido[4,5-e][1,4]diazepin-5-one] | can reverse the massive apoptosis of the PC12 cells caused by corticosterone | 85.4 ± 2.9% |  | Overexpression of cofilin-1 (cofilin-1): inhibit the overexpression; Expression of GR (GR): promote the expression of GR; Overexpression of NF-κB (NF-κB): inhibit the overexpression
6 | C=C[C@H]1CN(Cc2ccccc2)C(=O)c2cnc(N3CCOCC3)nc2N1CCC [(S)-I-5, (S)-6-benzyl-2-morpholino-9-propyl-8-vinyl-6,7,8,9-tetrahydro-5H-pyrimido[4,5-e][1,4]diazepine-5-one] |  | 89.4 ± 2.9% |  | 
7 | C=C[C@@H]1CN(Cc2ccccc2)C(=O)c2cnc(N3CCOCC3)nc2N1Cc1ccccc1 [(R)-I-8, (R)-6,9-dibenzyl-2-morpholinyl-8-vinyl-6,7,8,9-tetrahydro-5H-pyrimido[4,5-e][1.4]diazepine-5-one] |  |  |  | Cell viability (%) (PC12 cells [2]): 82.0 ± 2.0%
8 | C=C[C@@H]1CN(Cc2ccccc2)C(=O)c2cnc(Nc3ccccc3)nc2N1c1ccccc1 [(R)-I-18, (R)-6-benzyl-9-phenyl-2-anilino-8-vinyl-6,7,8,9-tetrahydro-5H-pyrimido[4,5-e][1,4]diazepine-5-one] |  | 75.2 ± 4.4% | 232.1 to 232.3 °C | 
9 | C=C[C@@H]1CN(Cc2ccccc2)C(=O)c2cnc(-c3ccco3)nc2N1c1ccccc1 [Compound I-16, (R)-6-benzyl-2-(2-furyl)-9-phenyl-8-vinyl-6,7,8,9-tetrahydro-5H-pyrimido[4,5-e][1,4]diazepin-5-one] |  |  | 178.5 to 178.6 °C | 
10 | C[C@]12C[C@H](O)[C@H]3[C@@H](CCC4=CC(=O)CC[C@@]43C)[C@@H]1CC[C@@H]2C(=O)CO [CORT, corticosterone, reference compound] |  |  |  | Cell viability (%) with corticosterone alone (PC12 cells [2]; PC12 cells, 600 μM corticosterone, 24 hours, no drug (model group)): 60.5 ± 3.6%; viability at 600 µM (PC12 cells [2]; Rattus norvegicus, PC-12, 24 h, read-out: Cell viability (%) with corticosterone alone, PC12 cells, 600 μM corticosterone, 24 hours, no drug (model group)): 60%
11 | CNCCC(Oc1ccc(C(F)(F)F)cc1)c1ccccc1 (stereo not drawn) [fluoxetine, reference compound] | can reduce cell death | 76.8 ± 6.4% |  | Overexpression of cofilin-1 (cofilin-1): inhibit the overexpression; Expression of GR (GR): promote the expression of GR; Effect on death rate of cells caused by CORT (cell survival rate) (PC12 cells [2]): can effectively reduce the death rate of cells caused by CORT; Culture time needed to exert effect on cell survival (PC12 cells [2]): 48 h
12 | C=C[C@H]1CN(Cc2ccccc2)C(=O)c2cnc(C)nc2N1c1ccccc1 [(S)-I-10, (S)-6-benzyl-2-methyl-9-phenyl-8-vinyl-6,7,8,9-tetrahydro-5H-pyrimido[4,5-e][1,4]diazepin-5-one] | higher number of blue fluorescence than (R)-I-9 | 97.8 ± 3.4% |  | 
13 | C=C[C@@H]1CN(Cc2ccccc2)C(=O)c2cnc(N3CCOCC3)nc2N1c1ccccc1 [(R)-I-1, (R)-6-benzyl-2-morpholino-9-phenyl-8-vinyl-6,7,8,9-tetrahydro-5H-pyrimido [4,5-e][1,4]diazapine-5-one] |  |  |  | Cell viability (%) (PC12 cells [2]): 82.8 ± 2.5%
14 | C=C[C@@H]1CN(Cc2ccccc2)C(=O)c2cnc(-c3ccccc3)nc2N1c1ccccc1 [(R)-I-13, (R)-6-benzyl-2,9-diphenyl-8-vinyl-6,7,8,9-tetrahydro-5H-pyrimido[4,5-e][1,4]diazepine-5-one] |  | 81.9 ± 4.5% | 212.7 to 213.6 °C | 
